Patent US9994617B2, “Modulation of structured polypeptide specificity” (BICYCLE THERAPEUTICS LIMITED, priority 2011, dated 2018)
pKi: −log10 of the molar value. Numbered stars: 1 amine (or outer) side, 2 acyl side, 3 side chain; on linkers, the order of the positions; unused ones are H or OH. Bridge positions count the residues as written; N and C are the ends. Square brackets hold non-standard residues; d marks the D form. Peptide text beside a SMILES is read from it. NMeW = CN[C@@H](Cc1c[nH]c2ccccc12)C(=O)O; TBMB = c1c(C[*:1])cc(C[*:3])cc1C[*:2]; NMeS = CN[C@@H](CO)C(=O)O; NMeA = CN[C@@H](C)C(=O)O

Biological target: human plasma kallikrein (hPK) (Homo sapiens, UniProt P03952)
Assay: Enzyme inhibition assay, human plasma kallikrein
Conditions: for fold reduction in affinity to kallikrein compared to wildtype peptide: versus Ac-06-34-18(TMB)-NH2

SMILES | pKi | fold reduction in affinity to kallikrein compared to wildtype peptide
CC(C)[C@@H]1NC(=O)[C@H](CCCNC(=N)N)NC(=O)[C@@H]2CSCc3cc(cc(c3)CSC[C@@H](C(=O)N[C@@H](C)C(N)=O)NC(=O)[C@H](CC(N)=O)NC1=O)CSC[C@H](NC(=O)[C@H](C)N)C(=O)N[C@@H](Cc1ccccc1)C(=O)N[C@@H](Cc1ccc(O)cc1)C(=O)N[C@@H](CCCCN)C(=O)N2 [Peptide 06-71] (H-ACFYKCRVNCA-NH2; linker 2-6-10 via TBMB) | 7.82 | –
CC(=O)N[C@H]1CSCc2cc3cc(c2)CSC[C@H](NC(=O)[C@@H](CCCNC(=N)N)NC(=O)[C@H](C)NC(=O)[C@@H]2CCCN2C(=O)[C@H](Cc2c[nH]c4ccccc24)NC(=O)[C@H](CO)NC1=O)C(=O)N[C@@H](CC(C)C)C(=O)N[C@@H](Cc1c[nH]cn1)C(=O)N[C@@H](CCC(N)=O)C(=O)N[C@@H](CC(=O)O)C(=O)N[C@@H](CC(C)C)C(=O)N[C@H](C(N)=O)CSC3 [Ac-(06-34-18) D-Arg5] | 7.28 | 300 fold
CC(=O)N[C@H]1CSCc2cc3cc(c2)CSC[C@H](NC(=O)[C@H](CCCNC(=N)N)NC(=O)[C@H](C)N(C)C(=O)[C@@H]2CCCN2C(=O)[C@H](Cc2c[nH]c4ccccc24)NC(=O)[C@H](CO)NC1=O)C(=O)N[C@@H](CC(C)C)C(=O)N[C@@H](Cc1c[nH]cn1)C(=O)N[C@@H](CCC(N)=O)C(=O)N[C@@H](CC(=O)O)C(=O)N[C@@H](CC(C)C)C(=O)N[C@H](C(N)=O)CSC3 [Ac-(06-34-18) NMeAla4] (Ac-CSWP[NMeA]RCLHQDLC-NH2; linker 1-7-13 via TBMB) | 6.46 | –
CC(=O)N[C@H]1CSCc2cc3cc(c2)CSC[C@H](NC(=O)[C@H](CCCNC(=N)N)NC(=O)[C@H](C)N(C)C(=O)[C@@H]2CCCN2C(=O)[C@H](Cc2c[nH]c4ccccc24)NC(=O)[C@H](CO)N(C)C1=O)C(=O)N[C@@H](CC(C)C)C(=O)N[C@@H](Cc1c[nH]cn1)C(=O)N[C@@H](CCC(N)=O)C(=O)N[C@@H](CC(=O)O)C(=O)N[C@@H](CC(C)C)C(=O)N[C@H](C(N)=O)CSC3 [Ac-(06-34-18) NMeSer1, NMeAla4] (Ac-C[NMeS]WP[NMeA]RCLHQDLC-NH2; linker 1-7-13 via TBMB) | 6.35 | –
CC(=O)N[C@H]1CSCc2cc3cc(c2)CSC[C@H](NC(=O)[C@H](CCCNC(N)=O)NC(=O)[C@H](C)NC(=O)[C@@H]2CCCN2C(=O)[C@H](Cc2c[nH]c4ccccc24)NC(=O)[C@H](CO)NC1=O)C(=O)N[C@@H](CC(C)C)C(=O)N[C@@H](Cc1c[nH]cn1)C(=O)N[C@@H](CCC(N)=O)C(=O)N[C@@H](CC(=O)O)C(=O)N[C@@H](CC(C)C)C(=O)N[C@H](C(N)=O)CSC3 [Ac-(06-34-18) CitS] | 5.10 | –
CC[C@H](C)[C@@H]1NC(=O)[C@H](C(C)C)NC(=O)[C@H](CCCNC(=N)N)NC(=O)[C@@H]2CSCc3cc(cc(c3)CSC[C@@H](C(=O)N[C@@H](C)C(N)=O)NC1=O)CSC[C@H](NC(=O)[C@H](C)N)C(=O)N[C@@H](Cc1ccccc1)C(=O)N[C@@H](CC(=O)O)C(=O)N1CCC[C@H]1C(=O)N2 [Peptide 3B9] (H-ACFDPCRVICA-NH2; linker 2-6-10 via TBMB) | 7.04 | –
CC(=O)N[C@H]1CSCc2cc3cc(c2)CSC[C@@H](NC(=O)[C@H](CCCNC(=N)N)NC(=O)[C@H](C)NC(=O)[C@@H]2CCCN2C(=O)[C@H](Cc2c[nH]c4ccccc24)NC(=O)[C@H](CO)NC1=O)C(=O)N[C@@H](CC(C)C)C(=O)N[C@@H](Cc1c[nH]cn1)C(=O)N[C@@H](CCC(N)=O)C(=O)N[C@@H](CC(=O)O)C(=O)N[C@@H](CC(C)C)C(=O)N[C@H](C(N)=O)CSC3 [Ac-(06-34-18) D-Cys2] | 6.63 | –
CC(=O)N[C@H]1CSCc2cc3cc(c2)CSC[C@H](NC(=O)[C@H](Cc2ccc(NC(=N)N)cc2)NC(=O)[C@H](C)NC(=O)[C@@H]2CCCN2C(=O)[C@H](Cc2c[nH]c4ccccc24)NC(=O)[C@H](CO)NC1=O)C(=O)N[C@@H](CC(C)C)C(=O)N[C@@H](Cc1c[nH]cn1)C(=O)N[C@@H](CCC(N)=O)C(=O)N[C@@H](CC(=O)O)C(=O)N[C@@H](CC(C)C)C(=O)N[C@H](C(N)=O)CSC3 [Ac-(06-34-18) 4GuanPhe5] | 9.52 | 2 fold
CC(=O)N[C@H]1CSCc2cc3cc(c2)CSC[C@H](NC(=O)[C@H](CCCNC(=N)N)NC(=O)[C@H](C)NC(=O)[C@@H]2CCCN2C(=O)[C@H](Cc2c[nH]c4ccccc24)N(C)C(=O)[C@H](CO)NC1=O)C(=O)N[C@@H](CC(C)C)C(=O)N[C@@H](Cc1c[nH]cn1)C(=O)N[C@@H](CCC(N)=O)C(=O)N[C@@H](CC(=O)O)C(=O)N[C@@H](CC(C)C)C(=O)N[C@H](C(N)=O)CSC3 [Ac-(06-34-18) NMeTrp2] (Ac-CS[NMeW]PARCLHQDLC-NH2; linker 1-7-13 via TBMB) | 6.64 | –
CC(=O)N[C@H]1CSCc2cc3cc(c2)CSC[C@H](NC(=O)[C@@H]2CCCN2C(=O)[C@H](CO)NC(=O)[C@H](CCCNC(=N)N)NC(=O)[C@H](C)NC(=O)[C@H](Cc2c[nH]c4ccccc24)NC1=O)C(=O)N[C@@H](CC(C)C)C(=O)N[C@@H](Cc1c[nH]cn1)C(=O)N[C@@H](CCC(N)=O)C(=O)N[C@@H](CC(=O)O)C(=O)N[C@@H](CC(C)C)C(=O)N[C@H](C(N)=O)CSC3 [Ac-(06-34-18) Scram4] (Ac-CWARSPCLHQDLC-NH2; linker 1-7-13 via TBMB) | 4.17 | –
CC(=O)N[C@H]1CSCc2cc3cc(c2)CSC[C@H](NC(=O)[C@H](CCCNC(=N)N)NC(=O)[C@@H](C)NC(=O)[C@@H]2CCCN2C(=O)[C@H](Cc2c[nH]c4ccccc24)NC(=O)[C@H](CO)NC1=O)C(=O)N[C@@H](CC(C)C)C(=O)N[C@@H](Cc1c[nH]cn1)C(=O)N[C@@H](CCC(N)=O)C(=O)N[C@@H](CC(=O)O)C(=O)N[C@@H](CC(C)C)C(=O)N[C@H](C(N)=O)CSC3 [Ac-(06-34-18) D-Ala4] | 5.92 | 7000 fold
CC(C)C[C@@H]1NC(=O)[C@H](CCC(=O)O)NC(=O)[C@H](CCCNC(=N)N)NC(=O)[C@H]([C@@H](C)O)NC(=O)[C@H](CC(C)C)NC(=O)[C@@H]2CSCc3cc(cc(c3)CSC[C@@H](C(=O)N[C@@H](C)C(N)=O)NC1=O)CSC[C@H](NC(=O)[C@H](C)N)C(=O)N[C@@H](C)C(=O)N[C@@H](Cc1c[nH]c3ccccc13)C(=O)N1CCC[C@H]1C(=O)N[C@@H](C)C(=O)N[C@@H](CCCCN)C(=O)N2 [Peptide 1B1] (H-ACAWPAKCLTRELCA-NH2; linker 2-8-14 via TBMB) | 8.09 | –
CC(C)[C@@H]1NC(=O)[C@H](CCCNC(=N)N)NC(=O)[C@@H]2CSCc3cc(cc(c3)CSC[C@@H](C(=O)N[C@@H](C)C(N)=O)NC(=O)[C@H](C)NC1=O)CSC[C@H](NC(=O)[C@H](C)N)C(=O)N[C@@H](Cc1ccccc1)C(=O)N1CCC[C@H]1C(=O)N[C@@H](CCCCN)C(=O)N2 [Peptide 3A3] (H-ACFPKCRVACA-NH2; linker 2-6-10 via TBMB) | 7.37 | –
CC(=O)N[C@H]1CSCc2cc3cc(c2)CSC[C@H](NC(=O)[C@H](C)NC(=O)[C@@H]2CCCN2C(=O)[C@H](Cc2c[nH]c4ccccc24)NC(=O)[C@H](CO)NC1=O)C(=O)N[C@@H](CC(C)C)C(=O)N[C@@H](Cc1c[nH]cn1)C(=O)N[C@@H](CCC(N)=O)C(=O)N[C@@H](CC(=O)O)C(=O)N[C@@H](CC(C)C)C(=O)N[C@H](C(N)=O)CSC3 [Ac-(06-34-18) Δ Arg5] (Ac-CSWPACLHQDLC-NH2; linker 1-6-12 via TBMB) | < 4.00 | –
